Values of other authors in article PMC3499999, “Advances in the Treatment of Malaria” (Mediterranean Journal of Hematology and Infectious Diseases, 2012).

Tests used:
[1] = design: method as in PMID 20863871; conditions: animals, only for long drug exposure; artemether and arteether intramuscularly, artelinic acid orally
[2] = design: method as in PMID 10661809; conditions: high intramuscular doses, oil-based, beagle dogs
P. falciparum = tested on: P. falciparum; design: method as in earlier work; conditions: 3-days course
severe malaria [3] = conditions: artesunate versus quinine, systematic reviews, regardless of age and geographic differences
severe malaria [4] = tested on: severe malaria; design: method as in PMID 19059639; conditions: rectal, over placebo, p=0.0013
[5] = design: method as in PMID 22540954
[6] = not given; remark: listed apart in the source
[7] = design: method as in PMID 17461742
[8] = in vivo

In the case of CCO[C@H]1O[C@@H]2O[C@@]3(C)CC[C@H]4[C@H](C)CC[C@@H]([C@H]1C)[C@@]24OO3 [arteether], the neurotoxicity [1] is given as “Fatal neurotoxicity” and the QTc prolongation [2] is given as “reported at significant level”.
For C[C@H]1[C@@H](OCc2ccc(C(=O)O)cc2)O[C@@H]2O[C@@]3(C)CC[C@H]4[C@H](C)CC[C@@H]1[C@@]24OO3 [artelinic acid], the neurotoxicity [1] is listed as “Fatal neurotoxicity”.
In the case of CO[C@H]1O[C@@H]2O[C@@]3(C)CC[C@H]4[C@H](C)CC[C@@H]([C@H]1C)[C@@]24OO3 [artemether], the neurotoxicity [1] is given as “Fatal neurotoxicity”, the QTc prolongation [2] is given as “reported at significant level” and the half-life is given as 2 to 4 h.
In the case of C[C@@H]1CC[C@H]2[C@@H](C)C(=O)O[C@@H]3O[C@@]4(C)CC[C@@H]1[C@]32OO4 [artemisinin], the “reduction of parasite burden” value (P. falciparum) is listed as 90%.
In the case of C[C@H]1[C@H](OC(=O)CCC(=O)O)O[C@@H]2O[C@@]3(C)CC[C@H]4[C@H](C)CC[C@@H]1[C@@]24OO3 [artesunate], the “case fatality rate, RR” value (severe malaria [3]) is listed as 0.71, the half-life is listed as < 1 h and the “death or permanent disability, RR” value (severe malaria [4]) is listed as 0.49. For the same molecule, the “median elimination T ½” value [5] was 0.25 [0.11 – 1.82] hours.
For COc1cc(NC(C)CCCN/C(C)=C2\CCOC2=O)c2ncccc2c1 (stereo not drawn) [buloquine], the “oxidative toxicity compared with primaquine” value [6] is given as “less oxidative toxicity”.
In the case of COc1cc(NC(C)CCCN)c2ncccc2c1 (stereo not drawn) [primaquine], the main safety concern ([6]; patients with glucose-6-phosphate dehydrogenase deficiency) is given as “risk of severe intravascular haemolysis”.
For COc1cc(C)c2c(Oc3cccc(C(F)(F)F)c3)c(OC)cc(NC(C)CCCN)c2n1 (stereo not drawn) [tefenoquine, tafenoquine], the “half-life compared with primaquine” value [7] is given as “longer half-life”.
For Atovaquone-proguanil, the “risk of birth defects relative to the general population” value [8] is listed as ≤ 3 times.
